Measurements from US20160222014A1, “COMPOUNDS FOR REGULATING FAK AND/OR SRC PATHWAYS” (ASANA BIOSCIENCES, LLC, priority 2013, published 2016).

Assays:
JAK2 = JAK2 (Homo sapiens, UniProt O60674); assay: JAK2 biochemical potency; settings: read-out: JAK2 HTRF IC50
Phospho Src(Y416) = biological target: T1, Phospho Src(Y416) (Homo sapiens, UniProt P12931); assay: Phospho Src(Y416) Sandwich ELISA; type: cell-based; settings: Panc1; read-out: pSrc EC50 (μM) Panc1
T1 construct: endogenous in cells; host or cells: Panc1
T1 sequence (P12931 whole entry): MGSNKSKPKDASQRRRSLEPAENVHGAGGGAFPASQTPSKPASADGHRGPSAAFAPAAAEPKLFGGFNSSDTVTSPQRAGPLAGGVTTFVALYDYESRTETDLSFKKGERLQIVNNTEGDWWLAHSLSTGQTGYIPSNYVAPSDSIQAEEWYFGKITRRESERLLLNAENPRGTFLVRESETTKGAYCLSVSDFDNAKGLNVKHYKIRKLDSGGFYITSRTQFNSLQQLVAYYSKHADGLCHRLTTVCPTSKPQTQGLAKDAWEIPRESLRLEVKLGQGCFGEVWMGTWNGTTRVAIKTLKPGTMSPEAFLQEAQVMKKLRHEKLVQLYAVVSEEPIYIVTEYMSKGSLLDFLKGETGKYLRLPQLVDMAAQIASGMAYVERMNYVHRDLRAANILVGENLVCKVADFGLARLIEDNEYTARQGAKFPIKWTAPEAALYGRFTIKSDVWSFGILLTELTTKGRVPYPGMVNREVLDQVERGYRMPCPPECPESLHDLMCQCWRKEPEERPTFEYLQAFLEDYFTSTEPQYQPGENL
Method: E. Phospho Src(Y416) Sandwich ELISA
Phospho Src(Y416) Sandwich ELISA kit was obtained from Cell Signaling Tech.
(i) Reagent Preparation • 1. All microwell strips were brought to rt before use. • 2. 1× Wash Buffer was prepared by diluting 20× Wash Buffer (included in each PathScan® Sandwich ELISA Kit) in MilliQ® water or equivalently purified water. • 3. 1× Cell Lysis Buffer from CST #9803: 20 mM Tris (pH 7.5), 150 mM NaCl, 1 mM ethylene diamine tetraacetate (EDTA), 1 mM ethylene glycol-bis(2-aminoethyl)-N,N,N′,N′-tetraacetic acid (EGTA), 1% Triton™ X-100, 2.5 mM sodium pyrophosphate, 1 mM b-glycerophosphate, 1 mM Na3VO4, 1 μg/mL leupeptin. This buffer was stored at 4° C. for short-term use (1-2 weeks).
(ii) Preparing Cell Lysates • 1. The media was aspirated. The cells were treated by adding fresh media containing inhibitor for 1 h. The compound of Example 214 was used as reference. • 2. The cells were harvested under non-denaturing conditions by removing media and rinsing cells once with ice-cold PBS. • 3. PBS was removed, 0.5 mL ice-cold 1× Cell Lysis Buffer plus 1 mM phenylmethylsulfonylfluoride (PMSF) was added to each plate (10 cm in diameter) and the plate incubated on ice for 5 min. • 4. The cells were scraped off of the plate, transferred to an appropriate tube, and kept on ice. • 5. The lysates were sonicated on ice. • 6. Microcentrifugation was performed for 10 min at 4° C. and the supernatant transferred to a new tube. The supernatant was the cell lysate and was stored at −80° C. in single-use aliquots.
(iii) Test Procedure • 1. After the microwell strips reached rt, the required number of microwells were broken off. The microwells were placed in the strip holder. Unused microwells were resealed and stored at 4° C. immediately. • 2. 100 μL of Sample Diluent (supplied in each PathScan® Sandwich ELISA Kit, blue color) was added to a micro centrifuge tube. 100 μL of cell lysate was transferred into the tube and vortexed for a few seconds. […] Individual data sheets for each kit provided information regarding an appropriate dilution factor for lysates and kit assay results. However, dilution factors were titrated when specific cell lysates are used. • 3. 100 μL of each diluted cell lysate were added to the appropriate well. It was then sealed with tape and pressed firmly onto top of microwells. The plate was incubated for 2 h at 37° C. Alternatively, the plate was incubated overnight at 4° C., which gave the best detection of target protein. • 4. The tape was gently removed and the wells washed: • a. The plate contents were discarded into a receptacle. • b. Each well was washed 4 times with 1× Wash Buffer, 200 μL. • c. For each wash, plates were struck on fresh towels hard enough to remove the residual solution in each well, but wells were not allowed to completely dry at any time. • d. The underside of all wells was cleaned with a lint-free tissue. • 5. 100 μL of Detection Antibody (green color) was added to each well, sealed with tape and the plate incubated for 1 h at 37° C. • 6. The wash procedure was repeated as in Step 4. • 7. 100 μL of HRP-linked secondary antibody (red color) was added to each well, sealed with tape and the plate incubated plate for 30 min at 37° C. • 8. The wash procedure was repeated as in Step 4. • 9. 100 μL of TMB Substrate was added to each well, sealed with tape and the plate incubated for 10 min at 37° C. or 30 min at 25° C. • 10. 100 μL of STOP Solution was added to each well and shaken gently for a few seconds. Initial color of positive reaction was blue, which changed to yellow upon addition of STOP Solution. • 11. The results were read. • a. Visual Determination—read within 30 min after adding STOP Solution. • b. Spectrophotometric Determination—the underside of wells were wiped with a lint-free tissue and absorbance read at 450 nm within 30 min after adding STOP Solution.

Recombinant Src enzyme = biological target: T2, Recombinant Src enzyme (Homo sapiens, UniProt P12931); assay: Src HTRF assay; type: biochemical
T2 construct: purchased Millipore 14-326; host or cells: Sf21 insect cells
T2 sequence (P12931 whole entry): as above
Procedure, shortened: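 Run as for the FAK HTRF assay (same buffer, supplements, compound preparation and procedure), with dasatinib included. Reaction contained 0.5 μM biotin-tagged Tyk2 synthetic peptide, 5 nM Src made in Sf21 cells, and a pH7.4-buffer-prepared component at 10 μM final.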

AURKB (Aurora B) enzyme = biological target: T3, AURKB (Aurora B) enzyme (Homo sapiens, UniProt Q96GD4); assay: Aurora B HTRF assay; type: biochemical; settings: read-out: AuroraB IC50
T3 construct: purchased Invitrogen PVR 130
T3 sequence (Q96GD4 whole entry): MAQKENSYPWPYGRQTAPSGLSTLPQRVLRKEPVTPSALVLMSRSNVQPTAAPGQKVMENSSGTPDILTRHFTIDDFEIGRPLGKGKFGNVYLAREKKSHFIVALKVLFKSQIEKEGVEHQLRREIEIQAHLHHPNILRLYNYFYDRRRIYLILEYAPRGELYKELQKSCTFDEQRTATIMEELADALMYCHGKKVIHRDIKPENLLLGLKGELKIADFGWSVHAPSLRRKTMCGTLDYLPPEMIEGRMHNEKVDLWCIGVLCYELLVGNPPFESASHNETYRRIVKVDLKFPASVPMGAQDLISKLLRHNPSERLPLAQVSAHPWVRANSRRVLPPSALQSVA
Procedure, shortened: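 Enzyme (5 nM final) and ULight-labelled PLK Ser137 peptide (50 nM) reacted 1 h at room temperature; a 30 μM final component was also present. Detection used EDTA-containing buffer with europium anti-phospho-PLK(Ser137) antibody at 2 nM, 1 h, then time-resolved FRET readout.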

recombinant human FAK1 = biological target: T4, recombinant human FAK1 (Homo sapiens, UniProt Q05397); assay: FAK1 HTRF assay; type: biochemical
T4 construct: fused on or other part: N-terminal 6xHis tag
T4 sequence (Q05397 422-680 limits assumed): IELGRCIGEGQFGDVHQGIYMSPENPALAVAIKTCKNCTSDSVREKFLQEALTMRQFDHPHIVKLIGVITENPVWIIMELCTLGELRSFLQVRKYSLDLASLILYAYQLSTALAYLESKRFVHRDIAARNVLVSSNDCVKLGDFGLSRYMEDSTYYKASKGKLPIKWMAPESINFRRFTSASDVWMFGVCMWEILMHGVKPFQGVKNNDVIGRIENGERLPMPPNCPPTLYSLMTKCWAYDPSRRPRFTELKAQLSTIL
Procedure, shortened: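 IC50 values derive from HTRF % inhibition (ratio 665/620 nm, Eu–anti-phosphotyrosine 0.1 nM, SA-APC 12 nM). The kinase step ran 45 min at room temperature, pairing 10 nM His-FAK1(692–end) from baculovirus with 0.5 μM gastrin Tyr87 biotin-peptide and a reagent at 10 μM final, pH 7.4. Compound dilutions began at 10 μM.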

[1] = biological target: T5, FAK phosphorylated at Y397 in HEK-FAK cell line overexpressing human FL FAK protein (Homo sapiens, UniProt Q05397); assay: Cell based assay, Phospho-FAK ELISA; settings: HEK stb; read-out: pFAK EC50 (μM) HEK stb
T5 construct: expressed in transfected cells
T5 sequence (Q05397 whole entry): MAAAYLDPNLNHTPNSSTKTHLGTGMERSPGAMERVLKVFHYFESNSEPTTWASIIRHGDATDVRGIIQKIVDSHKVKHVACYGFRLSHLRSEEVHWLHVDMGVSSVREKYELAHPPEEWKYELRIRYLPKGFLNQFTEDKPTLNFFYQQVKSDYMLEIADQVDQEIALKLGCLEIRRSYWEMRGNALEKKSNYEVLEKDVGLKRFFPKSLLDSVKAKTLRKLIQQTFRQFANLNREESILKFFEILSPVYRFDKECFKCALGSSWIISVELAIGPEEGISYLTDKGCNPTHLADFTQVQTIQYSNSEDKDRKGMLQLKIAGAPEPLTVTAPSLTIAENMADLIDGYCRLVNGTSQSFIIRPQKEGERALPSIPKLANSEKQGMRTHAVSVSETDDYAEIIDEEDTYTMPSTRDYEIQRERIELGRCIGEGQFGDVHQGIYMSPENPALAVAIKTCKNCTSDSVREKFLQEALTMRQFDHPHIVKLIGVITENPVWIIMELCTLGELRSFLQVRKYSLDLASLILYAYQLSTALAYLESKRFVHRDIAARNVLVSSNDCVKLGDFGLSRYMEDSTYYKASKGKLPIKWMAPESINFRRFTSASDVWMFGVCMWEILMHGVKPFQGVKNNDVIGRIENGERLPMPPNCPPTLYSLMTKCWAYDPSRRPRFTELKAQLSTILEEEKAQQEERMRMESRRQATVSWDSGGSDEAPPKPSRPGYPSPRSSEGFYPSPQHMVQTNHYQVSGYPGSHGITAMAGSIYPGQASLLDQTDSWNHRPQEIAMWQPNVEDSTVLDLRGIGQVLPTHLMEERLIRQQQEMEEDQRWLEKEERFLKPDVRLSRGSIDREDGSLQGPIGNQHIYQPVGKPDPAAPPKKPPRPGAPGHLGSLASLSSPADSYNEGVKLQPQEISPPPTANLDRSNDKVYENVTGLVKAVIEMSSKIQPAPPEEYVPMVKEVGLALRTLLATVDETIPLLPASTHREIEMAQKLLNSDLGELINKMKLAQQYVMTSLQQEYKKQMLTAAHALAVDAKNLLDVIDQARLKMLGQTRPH
Procedure, shortened: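 Stable HEK293 line overexpressing full-length human FAK, kept under 0.8 mg/mL Zeocin. In lysates, FAK Y397 autophosphorylation was measured by sandwich ELISA: total-FAK capture antibody, biotinylated pY397-specific detection antibody, streptavidin-HRP with TMB substrate.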

Chain of JAK2 (O60674 whole entry, species assumed): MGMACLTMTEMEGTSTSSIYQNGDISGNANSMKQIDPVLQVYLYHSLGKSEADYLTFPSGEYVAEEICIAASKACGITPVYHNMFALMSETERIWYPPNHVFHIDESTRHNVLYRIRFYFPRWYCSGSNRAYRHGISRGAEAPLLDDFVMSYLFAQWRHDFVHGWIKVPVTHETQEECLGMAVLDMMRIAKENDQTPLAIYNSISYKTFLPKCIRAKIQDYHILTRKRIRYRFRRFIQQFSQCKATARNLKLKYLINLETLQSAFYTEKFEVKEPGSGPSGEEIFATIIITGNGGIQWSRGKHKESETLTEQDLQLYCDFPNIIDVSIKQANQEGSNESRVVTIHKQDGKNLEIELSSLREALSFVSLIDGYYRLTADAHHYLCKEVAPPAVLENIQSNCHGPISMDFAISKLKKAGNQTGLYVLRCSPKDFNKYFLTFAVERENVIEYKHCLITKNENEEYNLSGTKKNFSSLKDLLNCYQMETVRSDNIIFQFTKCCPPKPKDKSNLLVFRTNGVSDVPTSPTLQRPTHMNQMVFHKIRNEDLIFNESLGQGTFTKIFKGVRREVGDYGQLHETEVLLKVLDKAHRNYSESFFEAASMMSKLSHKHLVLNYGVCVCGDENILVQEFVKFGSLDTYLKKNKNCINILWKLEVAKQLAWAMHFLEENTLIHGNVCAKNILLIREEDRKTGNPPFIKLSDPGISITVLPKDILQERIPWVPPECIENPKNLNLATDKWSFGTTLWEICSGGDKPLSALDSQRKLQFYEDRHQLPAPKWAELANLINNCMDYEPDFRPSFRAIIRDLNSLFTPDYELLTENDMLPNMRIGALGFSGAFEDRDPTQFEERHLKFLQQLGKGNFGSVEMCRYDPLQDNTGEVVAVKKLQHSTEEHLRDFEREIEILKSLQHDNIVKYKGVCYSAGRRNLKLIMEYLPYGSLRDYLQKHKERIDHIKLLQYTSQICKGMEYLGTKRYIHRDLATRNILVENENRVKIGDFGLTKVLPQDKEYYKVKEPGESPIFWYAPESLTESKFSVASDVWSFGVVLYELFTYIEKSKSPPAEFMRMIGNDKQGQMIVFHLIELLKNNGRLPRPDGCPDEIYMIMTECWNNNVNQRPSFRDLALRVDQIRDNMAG

Row | SMILES | IC50 (JAK2) | EC50 (Phospho Src(Y416)) | IC50 (Recombinant Src enzyme) | IC50 (AURKB (Aurora B) enzyme) | IC50 (recombinant human FAK1) | EC50 [1]
1 | O=C1CCc2cc(Nc3ncc4ccn(S(=O)(=O)c5ccccc5OC(F)(F)F)c4n3)ccc2N1 [Example 43] | < 0.02 µM | > 1 µM |  |  |  | 
2 | O=C1CCc2cc(Nc3cc4c(cn3)cnn4Cc3ccccc3OC(F)F)ccc2N1 [Example 65] |  | > 1 µM | < 0.02 µM | > 1 µM |  | 
3 | CN(C)S(=O)(=O)c1ccccc1Cn1ccc2cnc(Nc3ccc4c(c3)CCC(=O)N4)nc21 [Example 137] |  | > 1 µM |  | < 0.02 µM | < 0.02 µM | 
4 | CN(c1ncccc1Cn1ccc2cnc(Nc3cccc4ncccc34)nc21)S(C)(=O)=O [Example 160] |  | > 1 µM | > 1 µM |  |  | 
5 | O=C1CCc2cc(Nc3ncc4ccn(S(=O)(=O)c5ccccc5Cl)c4n3)ccc2N1 [Example 199] |  | > 1 µM |  | < 0.02 µM | < 0.02 µM | 
6 | N#Cc1ccccc1S(=O)(=O)n1ccc2cnc(Nc3ccc(C4CCN(CC(N)=O)CC4)cc3)nc21 [Example 251] |  | > 1 µM |  | < 0.02 µM |  | 
7 | NC(=O)CN1CCC(c2ccc(Nc3ncc4ccn(S(=O)(=O)c5cccc6cccnc56)c4n3)cc2)CC1 [Example 256] |  | > 1 µM |  | < 0.02 µM | < 0.02 µM | 
8 | Cn1cc(Nc2ncc3ccn(S(=O)(=O)c4ccccc4C#N)c3n2)cn1 [Example 317] |  | > 1 µM |  |  |  | > 1 µM
9 | O=C(Nc1ccc(Nc2ncc3ccn(S(=O)(=O)c4cccc5cccnc45)c3n2)cc1)C1CC1 [Example 331] |  | > 1 µM |  | < 0.02 µM | < 0.02 µM | 
10 | Cc1cc(Nc2cc3c(ccn3S(=O)(=O)c3cccc4cccnc34)cn2)ccc1N1CCNCC1 [Example 334] |  | > 1 µM |  | < 0.02 µM | < 0.02 µM | 
11 | CN(c1ncccc1Cn1ccc2cnc(Nc3ccc(N4CCN5C(=O)CCC5C4)cc3)nc21)S(C)(=O)=O (stereo not drawn) [Example 408] |  | > 1 µM |  | < 0.02 µM |  | 
12 | COC1CCN(c2ccc(Nc3ncc4ccn(S(=O)(=O)c5cccc6cccnc56)c4n3)cc2)CC1 [Example 412] |  | > 1 µM |  | < 0.02 µM | < 0.02 µM | 
13 | COc1cc(Nc2ncc3ccn(S(=O)(=O)c4cccc5cccnc45)c3n2)ccc1N1CCOCC1 [Example 432] |  | > 1 µM |  |  | < 0.02 µM | 
14 | CN(c1ccccc1Cn1ccc2cnc(Nc3ccc(N4CCC(O)CC4)cc3)nc21)S(C)(=O)=O [Example 434] |  | > 1 µM |  | < 0.02 µM | < 0.02 µM | 
15 | CC(=O)N1CCN(c2ccc(Nc3ncc4ccn(S(=O)(=O)c5cccc6cccnc56)c4n3)cc2)C[C@@H]1C [Example 449] |  | > 1 µM |  |  | < 0.02 µM | 
16 | CN(c1ccccc1Cn1ccc2cnc(Nc3ccc(NC(=O)C(C)(C)O)cc3)nc21)S(C)(=O)=O [Example 452] |  | > 1 µM |  |  |  | > 1 µM
17 | CC(=O)OC1CCN(c2ccc(Nc3ncc4ccn(S(=O)(=O)c5cccc6cccnc56)c4n3)cc2)CC1 [Example 454] |  | > 1 µM |  |  | < 0.02 µM | 
18 | CC(=O)N1CCN(c2ccc(Nc3ncc4ccn(Cc5ccccc5N(C)S(C)(=O)=O)c4n3)cc2)C[C@H]1C [Example 458] |  | > 1 µM |  |  | < 0.02 µM | 
19 | CC(=O)N1CCN(c2ccc(Nc3ncc4ccn(Cc5ccccc5N(C)S(C)(=O)=O)c4n3)cc2)CC1 [Example 465] |  | > 1 µM |  | < 0.02 µM | < 0.02 µM | 
20 | C[C@H]1CN(c2ccc(Nc3ncc4c(n3)N(S(=O)(=O)c3cccc5cccnc35)CC4(C)C)cc2)CCN1 [Example 473] |  | > 1 µM |  |  | < 0.02 µM | 
21 | C[C@@H]1CN(c2ccc(Nc3ncc4ccn(Cc5ccccc5N(C)S(C)(=O)=O)c4n3)cc2)CCN1C [Example 486] |  | > 1 µM |  | < 0.02 µM | < 0.02 µM | 
22 | CN(c1ccccc1Cn1ccc2cnc(Nc3ccc4c(c3)OCC(=O)N4)nc21)S(C)(=O)=O [Example 539] |  | > 1 µM |  |  | < 0.02 µM | 
23 | CN(c1ncccc1Cn1ccc2cnc(Nc3ccc(N4CCC(CO)CC4)cc3)nc21)S(C)(=O)=O [Example 559] |  | > 1 µM |  |  |  | > 1 µM
24 | CN(C)C1CN(c2ccc(Nc3ncc4ccn(Cc5cccnc5N(C)S(C)(=O)=O)c4n3)cc2F)C1 [Example 605] |  | > 1 µM |  |  |  | > 1 µM
25 | CN(c1ncccc1Cn1ccc2cnc(Nc3ccc(N4CCN(C5CC5)CC4)cc3)nc21)S(C)(=O)=O [Example 659] |  | > 1 µM |  |  |  | > 1 µM
26 | CN(c1ncccc1Cn1ccc2cnc(Nc3ccc(-c4cc[nH]c(=O)c4)cc3)nc21)S(C)(=O)=O [Example 669] |  | > 1 µM |  |  |  | > 1 µM
27 | CN(c1ccccc1Cn1ccc2cnc(Nc3ccc(C4CNC(=O)CO4)cc3)nc21)S(C)(=O)=O (stereo not drawn) [Example 676] |  | > 1 µM |  | < 0.02 µM |  | 
28 | Cc1cn(S(=O)(=O)c2cccc3cccnc23)c2nc(Nc3ccc(N4CCC(N(C)C)CC4)cc3)ncc12 [Example 712] |  | > 1 µM |  | < 0.02 µM | < 0.02 µM | 
29 | CN(c1ccccc1Cn1ccc2cnc(Nc3ccc(N4CCCC(O)C4)cc3)nc21)S(C)(=O)=O (stereo not drawn) [Example 750] |  | > 1 µM |  |  | < 0.02 µM | 
